Assay results taken from patent US6417211B1, “Isothiazolone concentrates” (Rohm and Haas Company, priority 1999, dated 2002).
Marks after values point to notes of the source that are not given here.

Legend:
[1] = Chemical stability of MI solutions on storage (HPLC, % active ingredient remaining); format: physicochemical; details: ± 1-2%
[2] = Physical stability of MI solutions on storage (homogeneity, clarity, crystallization, precipitation, phase separation); format: physicochemical
Procedure: By “physically stable” we mean that the compositions are homogeneous and fluid at temperatures of 20 to 25° C. for at least 24 hours. Preferably the compositions are physically stable at 20° C. and below for at least 3 days, more preferably for at least 2 weeks, and most preferably for at least 4 weeks. In addition, it is desirable that the compositions retain their physical stability for similar time periods at temperatures of 15° C. and below, and preferably at 5° C. and below.
Samples of technical grade 2-methyl-3-isothiazolone (MI) were used to prepare solutions of the NHITA in various solvents at different concentrations. […] Solutions were prepared by adding a weighed amount of molten MI (melted at about 55° C.) to a weighed amount of deionized water (or a solvent or a solvent-water mixture) in a 20-milliliter (ml) vial; the mixture was swirled and allowed to cool to room temperature. The prepared samples were allowed to stand at room temperature (20-25° C.) for 24 hours and then subjected to storage at cooler temperatures (5° C. and −17° C.) for at least 72 hours; observations were made at each condition to determine physical stability (homogeneity, clarity, crystallization, precipitation, phase separation). The samples were considered physically stable if no crystallization, phase separation or precipitation occurred; concentrations (or concentration ranges) at which the compositions were unstable are indicated by ** superscript, otherwise concentrations (ranges) listed were stable; results are summarized in Table I (concentrations are weight % MI).

[3] = solvent DEC (diethyl carbonate), 20-25° C., 24 hours
[4] = solvent DME (1,2-dimethoxyethane), 20-25° C., 24 hours
[5] = solvent DMSO, 20-25° C., 24 hours
[6] = solvent IPA (isopropanol), 5° C., at least 72 hours
[7] = solvent MeOH, 5° C., at least 72 hours
[8] = solvent PC (propylene carbonate), 20-25° C., 24 hours
[9] = solvent PG (propylene glycol), 5° C., at least 72 hours
[10] = solvent Water, 5° C., at least 72 hours
[11] = solvent Water, 20-25° C., 24 hours
[12] = solvent Water, −17° C., at least 72 hours

## Cn1sccc1=O [MI, 2-Methyl-3-isothiazolone]
[1]; initial MI concentration 68, PG, 40° C./11 days
  % Active Ingredient (MI) Remaining: 100%
[1]; initial MI concentration 78, MeOH, 40° C./11 days
  % Active Ingredient (MI) Remaining: 104%
[1]; initial MI concentration 85.8, Water, 55° C./4 weeks
  % Active Ingredient (MI) Remaining: 97.1%
[1]; initial MI concentration 88, 50/50 MeOH/Water, 40° C./11 days
  % Active Ingredient (MI) Remaining: 101%
[2]; 80% MI solution in water, 5° C.
  time solution remained stable: at least 4 months
[2]; 90% MI solution in water, 5° C.
  time solution remained stable: at least 4 months
[2]; solvent 50/50 MeOH/Water, 5° C., at least 72 hours
  MI concentration physically stable: 88 weight %
[2]; solvent 50/50 MeOH/Water, 20-25° C., 24 hours
  MI concentration physically stable: 88 weight %
[2]; solvent 50/50 MeOH/Water, −17° C., at least 72 hours
  MI concentration physically unstable (crystal formation or insoluble): 88** weight %
[2]; solvent BEE (2-(2-butoxyethoxyl)ethanol), 5° C., at least 72 hours
  MI concentration physically unstable (crystal formation or insoluble): 68-88** weight %
[2]; solvent BEE (2-(2-butoxyethoxyl)ethanol), 20-25° C., 24 hours
  MI concentration physically stable: 68-88 weight %
[2]; solvent DEC (diethyl carbonate), 5° C., at least 72 hours
  MI concentration physically unstable (crystal formation or insoluble): 70** weight %
[2]; [3]
  MI concentration physically stable: 70 weight %
  MI concentration physically unstable (crystal formation or insoluble): 80-90 weight %
[2]; solvent DME (1,2-dimethoxyethane), 5° C., at least 72 hours
  MI concentration physically unstable (crystal formation or insoluble): 70-80** weight %
[2]; [4]
  MI concentration physically stable: 70-80 weight %
  MI concentration physically unstable (crystal formation or insoluble): 90 weight %
[2]; solvent DMSO, 5° C., at least 72 hours
  MI concentration physically unstable (crystal formation or insoluble): 70-80** weight %
[2]; [5]
  MI concentration physically stable: 70-80 weight %
  MI concentration physically unstable (crystal formation or insoluble): 90 weight %
[2]; solvent DPG (dipropylene glycol), 5° C., at least 72 hours
  MI concentration physically unstable (crystal formation or insoluble): 75-90** weight %
[2]; solvent DPG (dipropylene glycol), 20-25° C., 24 hours
  MI concentration physically stable: 75-90 weight %
[2]; [6]
  MI concentration physically stable: 78 weight %
  MI concentration physically unstable (crystal formation or insoluble): 88 weight %
[2]; solvent IPA (isopropanol), 20-25° C., 24 hours
  MI concentration physically stable: 78-88 weight %
[2]; solvent IPA (isopropanol), −17° C., at least 72 hours
  MI concentration physically unstable (crystal formation or insoluble): 78** weight %
[2]; [7]
  MI concentration physically stable: 78 weight %
  MI concentration physically unstable (crystal formation or insoluble): 88 weight %
[2]; solvent MeOH, 20-25° C., 24 hours
  MI concentration physically stable: 78-88 weight %
[2]; solvent MeOH, −17° C., at least 72 hours
  MI concentration physically stable: 78 weight %
[2]; solvent PC (propylene carbonate), 5° C., at least 72 hours
  MI concentration physically unstable (crystal formation or insoluble): 69** weight %
[2]; [8]
  MI concentration physically stable: 69 weight %
  MI concentration physically unstable (crystal formation or insoluble): 80-90 weight %
[2]; [9]
  MI concentration physically stable: 68 weight %
  MI concentration physically unstable (crystal formation or insoluble): 78-88 weight %
[2]; solvent PG (propylene glycol), 20-25° C., 24 hours
  MI concentration physically stable: 68-88 weight %
[2]; solvent PG (propylene glycol), −17° C., at least 72 hours
  MI concentration physically stable: 68 weight %
[2]; [10]
  MI concentration physically stable: 60-89.5 weight %
  MI concentration physically unstable (crystal formation or insoluble): 90.5 weight %
[2]; [11]
  MI concentration physically stable: 60-94.4 weight %
  MI concentration physically unstable (crystal formation or insoluble): 95.4 weight %
[2]; [12]
  MI concentration physically stable: 70-77 weight %
  MI concentration physically unstable (crystal formation or insoluble): 88 weight %
[2]; solvent φCH2OH (benzyl alcohol), 5° C., at least 72 hours
  MI concentration physically stable: 60 weight %
[2]; solvent φCH2OH (benzyl alcohol), 20-25° C., 24 hours
  MI concentration physically stable: 60 weight %
[2]; solvent φCH2OH (benzyl alcohol), −17° C., at least 72 hours
  MI concentration physically unstable (crystal formation or insoluble): 60** weight %
[2]; solvent φOCH2CH2OH (phenoxyethanol), 5° C., at least 72 hours
  MI concentration physically stable: 60 weight %
[2]; solvent φOCH2CH2OH (phenoxyethanol), 20-25° C., 24 hours
  MI concentration physically stable: 60 weight %
[2]; solvent φOCH2CH2OH (phenoxyethanol), −17° C., at least 72 hours
  MI concentration physically unstable (crystal formation or insoluble): 60** weight %
